The source of these data is patent publication US10722501B2 (BAYER AKTIENGESELLSCHAFT, priority 2016, dated 2020).

Molecules are shown by their SMILES.

In one experiment the test system is PGP.
Experiment: not given
The conditions noted are these: COPD patients treated; cited from earlier work.
With `O=C(Nc1c(Cl)cncc1Cl)c1ccc(OC(F)F)c(OCC2CC2)c1` [roflumilast], the “concentration of PGP in the sputum and serum” value is given as “decrease”.

Another experiment addresses T1, recombinant full-length human prolyl endopeptidase (PREP) (Homo sapiens, UniProt P48147).
T1 construct: To recombinant full-length human prolyl endopeptidase (PREP, R&D-Systems, 4308-SE); purchased R&D-Systems 4308-SE
T1 sequence (P48147 1-710): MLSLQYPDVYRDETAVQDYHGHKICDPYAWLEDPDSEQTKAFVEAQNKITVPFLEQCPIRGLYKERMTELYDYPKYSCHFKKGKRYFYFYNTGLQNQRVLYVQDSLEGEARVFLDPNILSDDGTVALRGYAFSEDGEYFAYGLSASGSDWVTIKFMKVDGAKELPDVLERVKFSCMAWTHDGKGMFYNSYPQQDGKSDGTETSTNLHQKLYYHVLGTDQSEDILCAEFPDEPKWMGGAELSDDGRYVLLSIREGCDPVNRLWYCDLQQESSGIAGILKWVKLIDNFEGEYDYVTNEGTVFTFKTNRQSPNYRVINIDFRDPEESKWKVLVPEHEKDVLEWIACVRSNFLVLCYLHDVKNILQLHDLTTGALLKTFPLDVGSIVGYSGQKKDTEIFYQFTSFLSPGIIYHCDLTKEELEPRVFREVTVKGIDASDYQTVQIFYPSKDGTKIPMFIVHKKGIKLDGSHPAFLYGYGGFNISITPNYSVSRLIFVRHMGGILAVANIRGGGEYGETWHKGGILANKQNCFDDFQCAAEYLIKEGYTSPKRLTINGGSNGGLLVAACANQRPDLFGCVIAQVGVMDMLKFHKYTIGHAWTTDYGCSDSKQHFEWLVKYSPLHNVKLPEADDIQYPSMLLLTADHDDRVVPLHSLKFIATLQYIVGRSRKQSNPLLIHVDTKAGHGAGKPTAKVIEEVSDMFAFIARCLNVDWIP
Kind of experiment: Biochemical human prolyl endopeptidase (PREP) assay with fluorescently labelled substrate. The conditions noted are these: substrate Z-Gly-Pro-AMC 50 μM, 32° C., 60 min; some as mean values from multiple independent determinations. The method in brief:
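Initial rates of fluorescence increase from 50 μM Z-Gly-Pro-AMC cleavage (ex 360/em 465 nm, 60 min, 32° C) give percent PREP activity versus no-compound control, and IC50 is interpolated. Enzyme used at 0.4 nM (final, example) in Tris pH 7.5 with EDTA, GSH, BSA and Brij-35; compounds span 1 nM to 30 μM.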
Regarding `O=C(C1CCCc2nn(Cc3cccc(C(F)(F)F)c3)c(=O)n21)N1CCCC1` (racemic) [Example 19, (5RS)-5-(Pyrrolidin-1-ylcarbonyl)-2-[3-(trifluoromethyl)benzyl]-5,6,7,8-tetrahydro[1,2,4]triazolo[4,3-a]pyridin-3(2H)-one], the IC50 (in general, the midpoint of a concentration-inhibition curve) was found to be 0.57 nM.
As to `COc1ccc(Cn2nc3n(c2=O)[C@H](C(=O)N2CC(F)C2)CCC3)cn1` [Example 433, (5S)-5-[(3-Fluoroazetidin-1-yl)carbonyl]-2-[(6-methoxypyridin-3-yl)methyl]-5,6,7,8-tetrahydro[1,2,4]triazolo[4,3-a]pyridin-3(2H)-one], the concentration for half-maximal inhibition (IC50) was found to be 3.1 nM.
In the case of `Cc1ccc(Cn2nc3n(c2=O)[C@H](C(=O)N2CC[C@H](C(F)F)C2)CCC3)cc1` [Example 143, (5S)-5-{[(3S)-3-(Difluoromethyl)pyrrolidin-1-yl]carbonyl}-2-(4-methylbenzyl)-5,6,7,8-tetrahydro[1,2,4]triazolo[4,3-a]pyridin-3(2H)-one], the concentration for half-maximal inhibition (IC50) is 13.1 nM.
On the same count and under the same terms, as for `O=C(C1C(C(F)(F)F)CCc2nn(Cc3ncc(Cl)cc3F)c(=O)n21)N1C[C@@H](F)[C@@H](F)C1` (mixture of isomers) [Example 291, (5RS,6RS)-2-[(5-Chloro-3-fluoropyridin-2-yl)methyl]-5-{[(3R,4S)-3,4-difluoropyrrolidin-1-yl]carbonyl}-6-(trifluoromethyl)-5,6,7,8-tetrahydro[1,2,4]triazolo[4,3-a]pyridin-3(2H)-one], the figure is 96.5 nM; as for `O=C(C1CCCc2nn(Cc3cccc(F)c3)c(=O)n21)N1CCC(F)(F)C1` (racemic) [Example 56, (5RS)-5-[(3,3-Difluoropyrrolidin-1-yl)carbonyl]-2-(3-fluorobenzyl)-5,6,7,8-tetrahydro[1,2,4]triazolo[4,3-a]pyridin-3(2H)-one], 5.6 nM.
Still for that read-out and setting: as for `O=C(C1C(C(F)(F)F)CCc2nn(Cc3ccc(Cl)cn3)c(=O)n21)N1CC(F)C1` (racemic) [Example 310, (5RS,6RS)-2-[(5-Chloropyridin-2-yl)methyl]-5-[(3-fluoroazetidin-1-yl)carbonyl]-6-(trifluoromethyl)-5,6,7,8-tetrahydro[1,2,4]triazolo[4,3-a]pyridin-3(2H)-one], the figure is 15 nM.
The same measure, in the same setting: as for `Cc1cc(C)c(Cn2nc3n(c2=O)[C@H](C(=O)N2CCCC2)CCC3)cc1C` [Example 102, (5S)-5-(Pyrrolidin-1-ylcarbonyl)-2-(2,4,5-trimethylbenzyl)-5,6,7,8-tetrahydro[1,2,4]triazolo[4,3-a]pyridin-3(2H)-one], the figure is 0.25 nM; as for `O=C([C@@H]1CCCc2nn(Cc3ccc(Br)cn3)c(=O)n21)N1CC[C@H](F)C1` [Example 510, (5S)-2-[(5-Bromopyridin-2-yl)methyl]-5-{[(3S)-3-fluoropyrrolidin-1-yl]carbonyl}-5,6,7,8-tetrahydro[1,2,4]triazolo[4,3-a]pyridin-3(2H)-one], 0.535 nM.
On to `O=C([C@@H]1CCCc2nn(Cc3cncc(C(F)(F)F)c3)c(=O)n21)N1CCC(F)(F)C1` [Example 579, (5S)-5-[(3,3-Difluoropyrrolidin-1-yl)carbonyl]-2-{[5-(trifluoromethyl)pyridin-3-yl]methyl}-5,6,7,8-tetrahydro[1,2,4]triazolo[4,3-a]pyridin-3(2H)-one], for which the 50% inhibitory concentration (IC50) stood at 1.1 nM.
The same measure, in the same setting: as for `O=C(C1CC(C(F)(F)F)Cc2nn(Cc3ccc(Cl)nc3)c(=O)n21)N1C[C@@H](F)[C@@H](F)C1` (single isomer, unassigned) [Example 248], the figure is 12 nM; as for `COc1ccc(Cn2nc3n(c2=O)[C@H](C(=O)N2CCC(F)(F)C2)CCC3)cn1` [Example 434, (5S)-5-[(3,3-Difluoropyrrolidin-1-yl)carbonyl]-2-[(6-methoxypyridin-3-yl)methyl]-5,6,7,8-tetrahydro[1,2,4]triazolo[4,3-a]pyridin-3(2H)-one], 2.4 nM; as for `O=C([C@@H]1CCC(O)c2nn(Cc3ccc(Cl)cn3)c(=O)n21)N1CC[C@H](F)C1` (mixture of isomers) [Example 547, (5S,8RS)-2-[(5-Chloropyridin-2-yl)methyl]-5-{[(3S)-3-fluoropyrrolidin-1-yl]carbonyl}-8-hydroxy-5,6,7,8-tetrahydro[1,2,4]triazolo[4,3-a]pyridin-3(2H)-one], 0.43 nM.
As to `O=C([C@@H]1CCC(F)(F)c2nn(Cc3ccc(Cl)nc3)c(=O)n21)N1CCC(F)(F)C1` [Example 557, (5S)-2-[(6-Chloropyridin-3-yl)methyl]-5-[(3,3-difluoropyrrolidin-1-yl)carbonyl]-8,8-difluoro-5,6,7,8-tetrahydro[1,2,4]triazolo[4,3-a]pyridin-3(2H)-one], the IC50 worked out at 3.2 nM.
On the same count and under the same terms, as for `Cc1ccc(Cn2nc3n(c2=O)C(C(=O)N2CCCC2)CCC3C)cc1` (racemic) [Example 223, (5RS,8RS)-8-Methyl-2-(4-methylbenzyl)-5-(pyrrolidin-1-ylcarbonyl)-5,6,7,8-tetrahydro[1,2,4]triazolo[4,3-a]pyridin-3(2H)-one], the figure is 0.415 nM; as for `O=C([C@@H]1CCCc2nn(Cc3ncc(F)cc3F)c(=O)n21)N1CCC(F)(F)C1` [Example 412, (5S)-2-[(3,5-Difluoropyridin-2-yl)methyl]-5-[(3,3-difluoropyrrolidin-1-yl)carbonyl]-5,6,7,8-tetrahydro[1,2,4]triazolo[4,3-a]pyridin-3(2H)-one], 3 nM.
